The values that follow come from patent US5744340A, “Expression of human inducible nitric oxide synthase” (Schering Corporation, priority 1995, dated 1998).

“And” between values parts separate entries of the source, which are not always exact repeats. Equal entries are not always repeated. Where two headings read alike, the source gives them in different places.

Data set [1] addresses T1, human iNOS (Homo sapiens, UniProt P35228).
T1 construct: A full length iNOS cDNA was assembled from the products of the four PCR reactions; made in house; host or cells: E. coli JS5
As to the kind of experiment: iNOS activity: conversion of radioactive arginine to citrulline. Type of data set: biochemical. The note with it: for NOS activity without calmodulin coexpression: expression in E. coli; for dependence of activity on iNOS cofactors: crude cell extract.
Experimental: iNOS activity was measured by the conversion of radioactive arginine to citrulline similar to that described by Bredt and Snyder (Proc. Natl. Acad. Sci. USA, 1989, 86:9030-9033). Reactions contained 20 mM HEPES pH 7.5, 1 mM DTT, 10 μM FAD, 10 μM FMN, 20 μM THB, 2 μM hemin, 1 mM NADPH, 2 mg/ml BSA, 50 μM cold arginine and 1 μM ^3 H-arginine (60 Ci/mmole; Amersham). […] The reaction mix was then passed through 100 μl of Dowex resin (AG50-X8) in a filtration plate to separate citrulline (unbound) from arginine (bound). The filtrate was counted with one volume of scintillation fluid in 1450 Microbeta Plus liquid scintillation counter (Wallac). Enough enzyme is used per assay point to convert 10-20% of the tritiated arginine to product. Activities of various cell extracts examined are reported in units/ml, units defined as pmoles of citrulline formed per minute. Samples of E coli cell lysate expressing iNOS activity were desalted on a G-25 column prior to assay to remove any cold arginine.
NOS assays were performed as described above, except 1 μM undiluted labeled arginine was used. When calmodulin was used it was added at 10 μg/ml.
The iNOS activity in the crude cell extract was further characterized by a number of criteria.
Cells were broken and processed for activity, as described, except that THB was not added. The assay was then run with varying amounts of THB.

The subject of the next data set is murine iNOS. The note with it: 1991, cited from earlier work.
Data set [2] has as its target T1, human iNOS. Nature of the data set: retention of iNOS activity on overnight storage. Type of data set: physicochemical. On the procedure:
Breakage of cells and the ammonium sulfate fractionations were done in the presence of 10 μM FAD, 10 μM FMN, 2 μM THB, and 2 μM hemin. Leaving these cofactors out of the breaking buffer had no effect on the level of iNOS activity. […] Flavins were omitted after the 40% ammonium sulfate fractionation since they bind tightly to Q Sepharose. CHAPS detergent was included for the Q Sepharose column because iNOS fractionated poorly from the bulk of the protein in its absence. The yield of iNOS from about 20 liters of cells (32 g starting protein in the crude extract) was about 30-40 mg.

Data set [3] has as its target rat bNOS. The settings on record: Klatt et al., 1994, cited from earlier work.
Data set [4] deals with rat bNOS. The note with it: cited from earlier work.

T1 sequence (P35228 whole entry): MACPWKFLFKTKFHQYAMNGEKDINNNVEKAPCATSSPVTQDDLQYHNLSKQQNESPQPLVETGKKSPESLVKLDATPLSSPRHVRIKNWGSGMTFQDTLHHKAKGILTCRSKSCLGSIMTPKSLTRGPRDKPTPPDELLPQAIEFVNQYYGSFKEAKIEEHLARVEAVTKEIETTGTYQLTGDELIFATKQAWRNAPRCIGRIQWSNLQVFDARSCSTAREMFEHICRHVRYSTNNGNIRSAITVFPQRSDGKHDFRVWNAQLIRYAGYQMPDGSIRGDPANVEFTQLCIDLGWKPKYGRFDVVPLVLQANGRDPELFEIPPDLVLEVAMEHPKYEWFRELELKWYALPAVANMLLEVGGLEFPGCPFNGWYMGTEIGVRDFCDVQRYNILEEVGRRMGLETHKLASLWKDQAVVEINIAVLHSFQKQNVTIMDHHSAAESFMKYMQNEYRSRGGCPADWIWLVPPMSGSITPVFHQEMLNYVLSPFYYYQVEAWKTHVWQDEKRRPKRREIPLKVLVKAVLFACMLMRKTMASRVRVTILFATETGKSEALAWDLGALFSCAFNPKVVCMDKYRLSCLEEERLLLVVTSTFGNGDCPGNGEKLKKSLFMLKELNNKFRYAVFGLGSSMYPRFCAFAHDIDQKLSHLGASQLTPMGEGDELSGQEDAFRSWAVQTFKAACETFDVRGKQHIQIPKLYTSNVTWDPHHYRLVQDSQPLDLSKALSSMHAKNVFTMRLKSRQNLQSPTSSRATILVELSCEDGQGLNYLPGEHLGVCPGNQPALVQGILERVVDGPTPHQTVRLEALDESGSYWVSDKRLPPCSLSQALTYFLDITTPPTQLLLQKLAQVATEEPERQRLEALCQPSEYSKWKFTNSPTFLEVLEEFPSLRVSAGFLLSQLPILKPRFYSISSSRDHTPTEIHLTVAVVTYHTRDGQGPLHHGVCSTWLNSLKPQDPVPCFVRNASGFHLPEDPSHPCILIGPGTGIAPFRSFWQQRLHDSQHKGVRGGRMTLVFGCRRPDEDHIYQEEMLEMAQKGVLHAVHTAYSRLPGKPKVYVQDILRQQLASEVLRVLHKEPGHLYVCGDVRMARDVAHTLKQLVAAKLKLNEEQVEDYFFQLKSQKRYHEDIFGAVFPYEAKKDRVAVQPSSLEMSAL

As to `c1c[nH]cn1` [imidazole, reference compound], the IC50 at human iNOS [1] was determined as 120 µM.
As to `N=C(N)NN` [aminoguanidine, reference compound], the “IC50's on E. coli-derived compared with 293 cell-derived iNOS” value on human iNOS [1] (FIG. 5, 1 μM labeled arginine, inhibitor 0.01 to 10,000 μM) was “within two-fold of each other on both sources of iNOS”.
Take “murine iNOS: purified murine inducible nitric oxide synthase (Stuehr et al., 1991)”: the “specific activity of purified murine iNOS” value in the data set with murine iNOS (Stuehr et al.) was 1000 nmol/min/mg. The “specific activity of murine iNOS” value in the data set on murine iNOS (pure murine iNOS, b61: Stuehr et al.) is 1×10^6 units/mg and 1,000,000 units/mg.
As for `[Ca+2].[Cl-].[Cl-]` [CaCl2, reference compound], on human iNOS [1] (1 mM CaCl2), the “effect of addition on iNOS activity” value is given as “unaffected”.
On to “human iNOS: human inducible nitric oxide synthase expressed in E. coli, coexpressed with human calmodulin”, for which the “activity after overnight storage” value with human iNOS [2] (absence of cofactors (FAD, FMN, THB, hemin)) is on record as “half of the activity was lost”; with human iNOS [2] (presence of cofactors (10 μM FAD, 10 μM FMN, 2 μM THB, 2 μM hemin)) it was “complete activity was retained”. Also, the “Specific Activity” value with human iNOS [1] (40% ammonium sulfate ppt) is listed as 19,600 units/mg; with human iNOS [1] (Q Sepharose pool) it was 149,000 units/mg; in the data set with human iNOS [1] (S300 pool) it was 317,000 units/mg; with human iNOS [1] (cell lysate) it was 2,420 units/mg. The “specific activity compared with murine iNOS” value in the data set with human iNOS [1] (E. coli expressed iNOS) is “approximately the same specific activity”. The “level of activity with coexpression relative to without coexpression” value with human iNOS [1] (FIG. 2, average of three assays) is given as above 100 fold. Moreover, the “activity with coexpression of calmodulin” value in the data set with human iNOS [1] (crude extract) is on record as 3000-5000 units/mg. Moreover, the entries for the “NOS activity without calmodulin coexpression” value with human iNOS [1] and in the data set with human iNOS [1] (listed as iNOS) were “barely detectable above background” and “barely detectable above the E. coli negative control”, respectively. Also, the “specific activity of iNOS in the crude cell supernatant” value in the data set with human iNOS [1] (iNOS amount estimated from SDS gel against BSA control) is 500-1000 nmoles citrulline/min/mg of iNOS. Besides, in the data set with human iNOS [1] (leading edge of the S300 column, >95% pure), the “specific activity of the most pure material” value is listed as 450,000 units/mg.
For `N=C(N)NCCC[C@H](N)C(=O)O` [arginine, L-arginine, reference compound], the “Km for arginine compared with mammalian derived iNOS” value on human iNOS [1] (E. coli expressed iNOS) was “same Km”.
With hemin [reference compound], at human iNOS [1], the “dependence of activity on iNOS cofactors” value was “no dependence”.
For `Cc1cc2nc3c(=O)[nH]c(=O)nc-3n(C[C@H](O)[C@H](O)[C@H](O)COP(=O)(O)O)c2cc1C` [FMN, reference compound], the “dependence of activity on iNOS cofactors” value on human iNOS [1] is recorded as “no dependence”.
As for `C[C@H](O)[C@H](O)[C@H]1CNc2nc(N)[nH]c(=O)c2N1` [THB, tetrahydrobiopterin, reference compound], the Kd at rat bNOS [3] (read-out: Kd for THB binding to rat bNOS) is around 0.04 µM; on rat bNOS [3] (in the absence of 100 μM arginine, read-out: binding constant of THB for bNOS), 0.25 µM; on rat bNOS [3] (in the presence of 100 μM arginine, read-out: binding constant of THB for bNOS), 0.037 µM. On human iNOS [1] (E. coli expressed iNOS), the “dependence of enzyme activity on added THB” value was “completely dependent”. At human iNOS [1] (FIG. 4, cells broken without THB, varying THB in assay, read-out: half-maximal activity (THB titration)), the EC50 is ~0.12 µM and 0.12 µM. The “effect of THB on NOS activity” value at human iNOS [1] (cells broken in the absence of THB, THB added) is “restores NOS activity”.
For the compound `O=C(O)CN(CCOCCOCCN(CC(=O)O)CC(=O)O)CC(=O)O` [EGTA, reference compound], the “effect of addition on iNOS activity” value on human iNOS [1] (1 mM EGTA) was “unaffected”.
For calmodulin, the “effect of addition of calmodulin on NOS activity” value at human iNOS [1] (FIG. 2, coexpression extracts, calmodulin 10 μg/ml, 1 μM undiluted labeled arginine) is reported as “no effect”. In addition, the “effect of addition on iNOS activity” value at human iNOS [1] (calcium +10 mg/ml calmodulin) is “unaffected”. In addition, at human iNOS [1] (iNOS expressed in E. coli without coexpression of calmodulin), the “effect of calmodulin in the NOS assay” value is listed as “no effect”.
As to `Cc1cc2nc3c(=O)[nH]c(=O)nc-3n(C[C@H](O)[C@H](O)[C@H](O)COP(=O)(O)OP(=O)(O)OC[C@H]3O[C@@H](n4cnc5c(N)ncnc54)[C@H](O)[C@@H]3O)c2cc1C` [FAD, reference compound], the “dependence of activity on iNOS cofactors” value on human iNOS [1] is “no dependence”.
As for “rat bNOS: rat brain or neuronal nitric oxide synthase”, the “specific activity of rat bNOS” value with rat bNOS [4] was 270,000 units/mg.

Broadly, the IC50 is the point on the concentration scale where inhibition reaches its midpoint.
